Literature values, collected in patent US6982284B1, “Compositions and methods for modification of skin lipid content” (Applied Genetics Incorporated Dermatics, priority 1999, dated 2006).

Tested on: living skin equivalents

Molecule	effect on lipid composition	glucosylceramides and ceramides, most notably ceramides 6 and 7 (50 ug/ml)
Vitamin E	no effect	
O=C1O[C@H]([C@@H](O)CO)C(O)=C1O [Vitamin C]		increases
